In one data set the target is Human FXIa (Homo sapiens (Human), UniProt P03951). As to the kind of experiment: Determination of the % inhibition for FXIa. The class given is biochemical. Conditions: 40 μM of the test compound, human FXIa, 25° C.; read-out: % Inhibition @ 40 μM (human FXIa). The method, then: Determination of the % Inhibition for FXIa
Human FXIa (Enzyme Research Laboratories) was incubated at 25° C. with the fluorogenic substrate Z-Gly-Pro-Arg-AFC and 40 μM of the test compound. Residual enzyme activity (initial rate of reaction) was determined by measuring the change in […].

A further data set deals with Human plasma kallikrein (Homo sapiens (Human), UniProt P03952). The data set is described as follows: Determination of the IC50 for plasma kallikrein. The class given is biochemical. Conditions: read-out: IC50 (human PKal). The method, then: Determination of the IC50 for Plasma Kallikrein
Human plasma kallikrein, sequence (P03952 391-638): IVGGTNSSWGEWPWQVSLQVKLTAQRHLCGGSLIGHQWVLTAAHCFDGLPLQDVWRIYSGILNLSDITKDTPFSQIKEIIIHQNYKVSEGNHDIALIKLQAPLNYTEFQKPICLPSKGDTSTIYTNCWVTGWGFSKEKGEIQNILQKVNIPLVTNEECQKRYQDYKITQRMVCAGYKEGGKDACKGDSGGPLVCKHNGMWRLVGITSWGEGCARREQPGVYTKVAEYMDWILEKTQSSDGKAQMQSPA
Human plasma kallikrein, sequence (P03952 20-390 partner): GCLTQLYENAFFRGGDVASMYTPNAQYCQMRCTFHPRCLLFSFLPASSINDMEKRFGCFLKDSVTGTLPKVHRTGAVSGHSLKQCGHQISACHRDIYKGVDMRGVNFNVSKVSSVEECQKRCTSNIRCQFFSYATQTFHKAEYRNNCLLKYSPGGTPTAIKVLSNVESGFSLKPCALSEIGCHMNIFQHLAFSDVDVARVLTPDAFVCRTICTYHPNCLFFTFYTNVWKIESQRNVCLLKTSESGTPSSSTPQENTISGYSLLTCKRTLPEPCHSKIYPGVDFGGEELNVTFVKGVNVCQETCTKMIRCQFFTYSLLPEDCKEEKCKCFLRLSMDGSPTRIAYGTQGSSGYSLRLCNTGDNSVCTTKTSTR
Human plasma kallikrein (Protogen) was incubated at 25° C. with the fluorogenic substrate H-DPro-Phe-Arg-AFC and various concentrations of the test compound. Residual enzyme activity (initial rate of reaction) was determined by measuring the change in […] at 410 nm and the IC50 value for the test compound was determined.

Data set [1] is described as follows: Pharmacokinetics following a single oral dose in rats. The class given is in vivo. The following applies: rat, male Sprague-Dawley rats, nominal 10 mg/kg in 10% DMSO/10% cremophor/80% SWFI, plasma, actual dose 7.6 mg/kg (Example 115), 8.4 mg/kg (Example 85). The method, then:
Pharmacokinetic studies of the compounds in Table 15 were performed to assess the pharmacokinetics following a single oral dose in male Sprague-Dawley rats. Two rats were given a single po dose of 5 mL/kg of a nominal 2 mg/mL (10 mg/kg) composition of test compound in 10% DMSO/10% cremophor/80% SWFI. Following dosing, blood samples were collected over a period of 24 hours. Sample times were 5, 15 and 30 minutes then 1, 2, 4, 6, 8 and 12 hours. Following collection, blood samples were centrifuged and the plasma fraction analysed for concentration of test compound by LCMS.

The next data set has as its target Human KLK1 (Homo sapiens (Human), UniProt P06870). The data set is described as follows: Determination of the IC50 for KLK1. The class given is biochemical. Conditions: human KLK1, 25° C., substrate H-DVal-Leu-Arg-AFC. Here is the method: Determination of the IC50 for KLK1
Human KLK1 (Callbiochem) was incubated at 25° C. with the fluorogenic substrate H-DVal-Leu-Arg-AFC and various concentrations of the test compound. Residual enzyme activity (initial rate of reaction) was determined by measuring the change in […] at 410 nm and the IC50 value for the test compound was determined.

Some results are limits rather than exact numbers.

Human KLK1, sequence (P06870 25-262): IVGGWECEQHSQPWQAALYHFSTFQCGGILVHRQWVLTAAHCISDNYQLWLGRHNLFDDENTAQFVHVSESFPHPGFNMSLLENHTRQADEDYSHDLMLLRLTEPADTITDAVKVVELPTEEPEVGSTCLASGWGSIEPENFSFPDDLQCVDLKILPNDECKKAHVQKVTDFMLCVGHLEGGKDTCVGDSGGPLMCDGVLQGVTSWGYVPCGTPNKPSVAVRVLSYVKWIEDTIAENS
Human FXIa, sequence (P03951 388-625 limits assumed): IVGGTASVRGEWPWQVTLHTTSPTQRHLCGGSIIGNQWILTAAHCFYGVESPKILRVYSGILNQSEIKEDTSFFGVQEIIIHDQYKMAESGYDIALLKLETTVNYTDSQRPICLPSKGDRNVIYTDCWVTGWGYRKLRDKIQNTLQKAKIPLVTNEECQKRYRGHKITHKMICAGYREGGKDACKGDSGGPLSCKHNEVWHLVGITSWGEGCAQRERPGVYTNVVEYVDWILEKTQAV
Human FXIa, sequence (P03951 19-387 partner limits assumed): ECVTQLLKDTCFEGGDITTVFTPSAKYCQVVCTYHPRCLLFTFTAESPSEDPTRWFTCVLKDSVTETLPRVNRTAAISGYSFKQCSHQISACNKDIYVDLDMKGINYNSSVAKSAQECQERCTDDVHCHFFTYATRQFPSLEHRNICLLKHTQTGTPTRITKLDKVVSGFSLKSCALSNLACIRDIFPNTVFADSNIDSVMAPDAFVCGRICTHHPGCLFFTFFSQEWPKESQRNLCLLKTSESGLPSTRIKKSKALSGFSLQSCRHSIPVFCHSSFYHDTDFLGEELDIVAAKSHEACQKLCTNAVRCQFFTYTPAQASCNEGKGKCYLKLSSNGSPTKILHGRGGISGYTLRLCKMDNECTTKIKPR

As to `Cc1cccn(Cc2ccc(Cn3cc(C(=O)NCCOc4cccc(Cl)c4)c(N)n3)cc2)c1=O` [Example 85, 3-amino-N-[2-(3-chlorophenoxy)ethyl]-1-({4-[(3-methyl-2-oxopyridin-1-yl)methyl]phenyl}methyl)pyrazole-4-carboxamide], the inhibition at 40 µM on Human FXIa was found to be 1%. The IC50 on Human plasma kallikrein is 3.5 nM. Also, in data set [1], the highest concentration (Cmax) stood at 228 ng/mL and the time of peak concentration (Tmax) is 45 min. At Human KLK1, this compound had an IC50 greater than 40000 nM.

For the compound `C[C@@H](CNC(=O)c1cn(Cc2ccc(Cn3ccccc3=O)cc2)nc1N)Oc1cccc(Cl)c1` [Example 115, 3-Amino-N-[(2S)-2-(3-chlorophenoxy)propyl]-1-({4-[(2-oxopyridin-1-yl)methyl]phenyl}methyl)-pyrazole-4-carboxamide], the IC50 at Human plasma kallikrein stood at 5.6 nM. In addition, in data set [1], the Cmax was 538 ng/mL and the time of peak concentration (Tmax) is 30 min. This compound returned a 50% inhibitory concentration (IC50) against Human KLK1 greater than 40000 nM.

With `Nc1nn(Cc2ccc(CN3CCCCC3=O)cc2)cc1C(=O)NCCOc1cccc(Cl)c1` [Example 77, 3-amino-N-[2-(3-chlorophenoxy)ethyl]-1-({4-[(2-oxopiperidin-1-yl)methyl]phenyl}methyl)pyrazole-4-carboxamide], the inhibition at 40 µM at Human FXIa amounted to 0%. Also, the figures for the half-maximal inhibitory concentration (IC50) at Human plasma kallikrein and at Human KLK1 were 112 nM and greater than 40000 nM, respectively.

Consider `CC(C)C(=O)N(C)Cc1ccc(Cn2cc(C(=O)NCCOc3cccc(Cl)c3)c(N)n2)cc1` [Example 84, 3-amino-N-[2-(3-chlorophenoxy)ethyl]-1-({4-[(N,2-dimethylpropanamido)methyl]phenyl}methyl)pyrazole-4-carboxamide], for which the inhibition at 40 µM at Human FXIa stood at 3%. Also, the IC50 on Human plasma kallikrein was 731 nM; against Human KLK1 it was greater than 40000 nM.

Take `O=C(NCCOc1cccc(Cl)c1)c1cnn(Cc2ccc(Cn3ccccc3=O)cc2)c1` [Example 36, N-[2-(3-chlorophenoxy)ethyl]-1-({4-[(2-oxopyridin-1-yl)methyl]phenyl}methyl)pyrazole-4-carboxamide]: the inhibition at 40 µM at Human FXIa was found to be 0%. Besides, the half-maximal inhibitory concentration (IC50) at Human plasma kallikrein was 6.1 nM; at Human KLK1, greater than 40000 nM.

On to `C[C@@H](COc1cccc(Cl)c1)NC(=O)c1cn(Cc2ccc(Cn3ccccc3=O)cc2)nc1N` [Example 114, 3-amino-N-[(2S)-1-(3-chlorophenoxy)propan-2-yl]-1-({4-[(2-oxopyridin-1-yl)methyl]phenyl}methyl)pyrazole-4-carboxamide], for which the inhibition at 40 µM at Human FXIa is 0%. Further, the concentration for half-maximal inhibition (IC50) at Human plasma kallikrein was 140 nM; on Human KLK1, greater than 40000 nM.

For `CNC(=O)CN(C)c1cc(Cn2cc(C(=O)NCCOc3cccc(Cl)c3)c(N)n2)ccn1` [Example 74, 3-amino-N-[2-(3-chlorophenoxy)ethyl]-1-[(2-{methyl[(methylcarbamoyl)methyl]amino}pyridin-4-yl)methyl]pyrazole-4-carboxamide], on Human FXIa, the inhibition at 40 µM amounted to 4%. The 50% inhibitory concentration (IC50) at Human plasma kallikrein is greater than 10000 nM; against Human KLK1 it was greater than 40000 nM.

Take `Nc1nn(Cc2ccc(N3CCCC3)nc2)cc1C(=O)NCCOc1cccc(Cl)c1` [Example 49, 3-amino-N-[2-(3-chlorophenoxy)ethyl]-1-{[6-(pyrrolidin-1-yl)pyridin-3-yl]methyl}pyrazole-4-carboxamide]: on Human FXIa, the inhibition at 40 µM was determined as 0%. The concentration for half-maximal inhibition (IC50) on Human plasma kallikrein is 847 nM; against Human KLK1 it was greater than 40000 nM.

Take `Nc1nn(Cc2ccc(CN3CCOCC3=O)cc2)cc1C(=O)NCCOc1cccc(Cl)c1` [Example 76, 3-amino-N-[2-(3-chlorophenoxy)ethyl]-1-({4-[(3-oxomorpholin-4-yl)methyl]phenyl}methyl)pyrazole-4-carboxamide]: the inhibition at 40 µM on Human FXIa stood at 0%. The 50% inhibitory concentration (IC50) is 227 nM at Human plasma kallikrein and greater than 40000 nM on Human KLK1.

As usually defined, the inhibition is the relative decrease from the control value, in per cent. By IC50 is commonly meant the midpoint of a concentration-inhibition curve. A word on the Cmax: it is the highest concentration seen after dosing. The Tmax is the time at which the peak concentration occurs.
